The source of these data is ChEMBL document CHEMBL1909046, “DrugMatrix in vitro pharmacology data”.

SMILES strings stand for the structures.

Test system in one test: not listed separately
Put plainly: DRUGMATRIX: Interleukin IL-1 radioligand binding (ligand: [125I] interleukin 1beta). The format is cell membranes, Membrane. The conditions noted are these: nih3t3; Not Active = under 50% inhibition at 10 µM.
As to `CC(C)c1nc(CN(C)C(=O)N[C@H](C(=O)N[C@@H](Cc2ccccc2)C[C@H](O)[C@H](Cc2ccccc2)NC(=O)OCc2cncs2)C(C)C)cs1` [RITONAVIR], the IC50 entry is on record as “Not Active” and the Ki result is on record as “Not Active”.

As to `CC(C)(C)c1ccc(C(O)CCCN2CCC(C(O)(c3ccccc3)c3ccccc3)CC2)cc1` (centres undefined) [TERFENADINE], the IC50 entry is reported as “Not Active” and the Ki result is “Not Active”.

Consider `CC(=O)CC(c1ccccc1)c1c(O)c2ccccc2oc1=O` (centres undefined) [WARFARIN], for which the IC50 result is recorded as “Not Active” and the Ki entry is “Not Active”.

Test system in the next test: not listed separately
In words: DRUGMATRIX: Sodium/nucleoside co-transporter radioligand binding (ligand: nitrobenzylthioinosine). The format is cell membranes, Cavia porcellus, Dunkin-Hartley, Cerebral cortex, Membrane. The conditions noted are these: Not Active = under 50% inhibition at 10 µM.
`CC(C)c1nc(CN(C)C(=O)N[C@H](C(=O)N[C@@H](Cc2ccccc2)C[C@H](O)[C@H](Cc2ccccc2)NC(=O)OCc2cncs2)C(C)C)cs1` [RITONAVIR]: the IC50 result is listed as “Not Active” and the Ki result was “Not Active”.

For `CC(C)(C)c1ccc(C(O)CCCN2CCC(C(O)(c3ccccc3)c3ccccc3)CC2)cc1` (centres undefined) [TERFENADINE], the IC50 result is on record as “Not Active” and the Ki result is “Not Active”.

As for `CC(=O)CC(c1ccccc1)c1c(O)c2ccccc2oc1=O` (centres undefined) [WARFARIN], the IC50 entry is recorded as “Not Active” and the Ki entry is listed as “Not Active”.

Test system in another test: not listed separately
In words: DRUGMATRIX: Potassium Channel [KATP] radioligand binding (ligand: [3H] Glyburide). Format: cell membranes, Membrane. Conditions: hit-t15; Not Active = under 50% inhibition at 10 µM.
Turning to `CC(C)c1nc(CN(C)C(=O)N[C@H](C(=O)N[C@@H](Cc2ccccc2)C[C@H](O)[C@H](Cc2ccccc2)NC(=O)OCc2cncs2)C(C)C)cs1` [RITONAVIR], the IC50 entry is given as “Not Active” and the Ki result was “Not Active”.

On to `CC(=O)CC(c1ccccc1)c1c(O)c2ccccc2oc1=O` (centres undefined) [WARFARIN], for which the IC50 entry was “Not Active” and the Ki result is “Not Active”.

The target in another test is Mu-type opioid receptor (Homo sapiens, UniProt P35372). Put plainly: DRUGMATRIX: Opiate mu (OP3, MOP) radioligand binding (ligand: [3H] Diprenorphine). The format is cell membranes, CHO-K1, Membrane. Conditions: cho-k1; Not Active = under 50% inhibition at 10 µM.
Chain of Mu-type opioid receptor (P35372 whole entry): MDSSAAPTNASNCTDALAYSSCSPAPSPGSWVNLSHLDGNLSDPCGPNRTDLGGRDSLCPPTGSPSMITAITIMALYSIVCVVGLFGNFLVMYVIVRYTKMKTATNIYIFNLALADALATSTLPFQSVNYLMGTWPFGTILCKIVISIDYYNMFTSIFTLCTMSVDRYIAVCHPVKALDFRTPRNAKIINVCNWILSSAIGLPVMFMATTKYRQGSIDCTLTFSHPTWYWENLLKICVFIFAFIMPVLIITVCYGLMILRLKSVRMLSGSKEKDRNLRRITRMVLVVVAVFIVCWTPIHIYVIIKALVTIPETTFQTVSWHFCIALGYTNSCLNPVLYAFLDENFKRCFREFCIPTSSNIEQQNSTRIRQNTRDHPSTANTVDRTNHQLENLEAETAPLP
On to `CC(C)(C)c1ccc(C(O)CCCN2CCC(C(O)(c3ccccc3)c3ccccc3)CC2)cc1` (centres undefined) [TERFENADINE], for which the IC50 entry is “Not Active”.

Test system in the next test: not listed separately
Put plainly: DRUGMATRIX: Serotonin (5-Hydroxytryptamine) 5-HT3 radioligand binding (ligand: [3H] GR-65630). Conditions: hek293; Not Active = under 50% inhibition at 10 µM. The format is cell membranes, Membrane.
On to `CC(C)c1nc(CN(C)C(=O)N[C@H](C(=O)N[C@@H](Cc2ccccc2)C[C@H](O)[C@H](Cc2ccccc2)NC(=O)OCc2cncs2)C(C)C)cs1` [RITONAVIR], for which the IC50 entry is “Not Active” and the Ki entry is listed as “Not Active”.

As to `CC(C)(C)c1ccc(C(O)CCCN2CCC(C(O)(c3ccccc3)c3ccccc3)CC2)cc1` (centres undefined) [TERFENADINE], the IC50 result is on record as “Not Active” and the Ki entry is listed as “Not Active”.

Turning to `CC(=O)CC(c1ccccc1)c1c(O)c2ccccc2oc1=O` (centres undefined) [WARFARIN], the IC50 entry is “Not Active” and the Ki entry was “Not Active”.

For another test, the target named is Mitogen-activated protein kinase 3 (Homo sapiens, UniProt P27361). In words: DRUGMATRIX: Protein Serine/Threonine Kinase, ERK1 enzyme inhibition (substrate: Myelin Basic Protein). Conditions: Not Active = under 50% inhibition at 10 µM. On the set-up: species or system Escherichia coli.
Chain of Mitogen-activated protein kinase 3 (P27361 whole entry): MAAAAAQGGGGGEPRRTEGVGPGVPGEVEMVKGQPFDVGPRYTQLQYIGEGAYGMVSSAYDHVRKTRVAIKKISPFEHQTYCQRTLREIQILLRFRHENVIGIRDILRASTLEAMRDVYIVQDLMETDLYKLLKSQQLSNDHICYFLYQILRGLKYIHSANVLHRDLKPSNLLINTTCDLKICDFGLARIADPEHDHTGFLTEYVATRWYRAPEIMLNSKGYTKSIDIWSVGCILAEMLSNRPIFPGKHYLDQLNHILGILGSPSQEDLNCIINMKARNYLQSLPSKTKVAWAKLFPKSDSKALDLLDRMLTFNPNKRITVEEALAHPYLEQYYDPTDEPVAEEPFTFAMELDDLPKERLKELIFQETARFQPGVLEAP
For the compound `CC(C)c1nc(CN(C)C(=O)N[C@H](C(=O)N[C@@H](Cc2ccccc2)C[C@H](O)[C@H](Cc2ccccc2)NC(=O)OCc2cncs2)C(C)C)cs1` [RITONAVIR], the IC50 result is “Not Active”.

For the compound `CC(C)(C)c1ccc(C(O)CCCN2CCC(C(O)(c3ccccc3)c3ccccc3)CC2)cc1` (centres undefined) [TERFENADINE], the IC50 result is given as “Not Active”.

With `CC(=O)CC(c1ccccc1)c1c(O)c2ccccc2oc1=O` (centres undefined) [WARFARIN], the IC50 entry is reported as “Not Active”.

The next test concerns the target T1, Leukotriene C4 synthase (Cavia porcellus, UniProt A6XA80).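 Further: enzyme inhibition assay of leukotriene C4 synthase, using LTA4 as the substrate; in other assays of this panel Not Active means under 50% inhibition at 10 µM.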
T1 sequence (A6XA80 whole entry): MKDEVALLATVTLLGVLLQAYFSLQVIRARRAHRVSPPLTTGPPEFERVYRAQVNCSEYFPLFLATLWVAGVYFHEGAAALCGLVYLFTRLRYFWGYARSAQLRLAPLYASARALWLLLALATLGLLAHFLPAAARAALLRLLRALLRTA
The format is tissue-based, Lung.
Details: not given
For `CC(C)c1nc(CN(C)C(=O)N[C@H](C(=O)N[C@@H](Cc2ccccc2)C[C@H](O)[C@H](Cc2ccccc2)NC(=O)OCc2cncs2)C(C)C)cs1` [RITONAVIR], the IC50 result is “Not Active”.

For `CC(C)(C)c1ccc(C(O)CCCN2CCC(C(O)(c3ccccc3)c3ccccc3)CC2)cc1` (centres undefined) [TERFENADINE], the IC50 entry was “Not Active”.

Turning to `CC(=O)CC(c1ccccc1)c1c(O)c2ccccc2oc1=O` (centres undefined) [WARFARIN], the IC50 result is “Not Active”.

The target in the next test is Cannabinoid receptor 1 (Homo sapiens, UniProt P21554). Format: cell membranes, Chem-1, Membrane. The conditions noted are these: chem-1. Further: in other assays of this panel Not Active means under 50% inhibition at 10 µM.
Chain of Cannabinoid receptor 1 (P21554 whole entry): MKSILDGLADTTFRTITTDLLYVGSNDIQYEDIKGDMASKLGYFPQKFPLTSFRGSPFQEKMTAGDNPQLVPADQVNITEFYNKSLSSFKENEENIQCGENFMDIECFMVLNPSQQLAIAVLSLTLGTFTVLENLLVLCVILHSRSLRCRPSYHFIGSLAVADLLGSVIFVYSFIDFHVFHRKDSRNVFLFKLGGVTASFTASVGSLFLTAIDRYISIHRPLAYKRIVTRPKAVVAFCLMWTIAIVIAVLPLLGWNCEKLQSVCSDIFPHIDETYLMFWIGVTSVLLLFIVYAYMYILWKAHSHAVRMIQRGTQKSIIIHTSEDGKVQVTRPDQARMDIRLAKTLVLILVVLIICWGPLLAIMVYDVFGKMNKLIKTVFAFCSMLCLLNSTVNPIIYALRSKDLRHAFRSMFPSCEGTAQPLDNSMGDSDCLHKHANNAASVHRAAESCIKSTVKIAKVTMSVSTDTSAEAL
Consider `CC(C)c1nc(CN(C)C(=O)N[C@H](C(=O)N[C@@H](Cc2ccccc2)C[C@H](O)[C@H](Cc2ccccc2)NC(=O)OCc2cncs2)C(C)C)cs1` [RITONAVIR], for which the IC50 entry is on record as “Not Active”.

Turning to `CC(C)(C)c1ccc(C(O)CCCN2CCC(C(O)(c3ccccc3)c3ccccc3)CC2)cc1` (centres undefined) [TERFENADINE], the IC50 entry is listed as “Not Active”.

As to `CC(=O)CC(c1ccccc1)c1c(O)c2ccccc2oc1=O` (centres undefined) [WARFARIN], the IC50 result is “Not Active”.

In the next test the target is Platelet-activating factor receptor (Homo sapiens, UniProt P25105). The format is tissue-based. Further: in other assays of this panel Not Active means under 50% inhibition at 10 µM.
Chain of Platelet-activating factor receptor (P25105 whole entry): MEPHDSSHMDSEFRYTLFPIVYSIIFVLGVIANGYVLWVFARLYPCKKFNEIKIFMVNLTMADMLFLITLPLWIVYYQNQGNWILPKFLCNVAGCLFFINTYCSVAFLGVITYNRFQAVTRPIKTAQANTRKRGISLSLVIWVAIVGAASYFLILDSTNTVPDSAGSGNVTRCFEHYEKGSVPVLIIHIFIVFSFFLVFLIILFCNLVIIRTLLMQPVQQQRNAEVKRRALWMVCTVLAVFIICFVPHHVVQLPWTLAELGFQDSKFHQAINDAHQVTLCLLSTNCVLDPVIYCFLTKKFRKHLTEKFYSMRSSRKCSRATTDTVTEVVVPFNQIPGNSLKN
Details: not given
Regarding `CC(C)c1nc(CN(C)C(=O)N[C@H](C(=O)N[C@@H](Cc2ccccc2)C[C@H](O)[C@H](Cc2ccccc2)NC(=O)OCc2cncs2)C(C)C)cs1` [RITONAVIR], the IC50 result is reported as “Not Active”.

On to `CC(C)(C)c1ccc(C(O)CCCN2CCC(C(O)(c3ccccc3)c3ccccc3)CC2)cc1` (centres undefined) [TERFENADINE], for which the IC50 entry is “Not Active”.

Take `CC(=O)CC(c1ccccc1)c1c(O)c2ccccc2oc1=O` (centres undefined) [WARFARIN]: the IC50 result was “Not Active”.

In the next test the target is T2, Receptor-type tyrosine-protein phosphatase C (Homo sapiens, UniProt P08575).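 Further: inhibition of CD45 enzyme activity measured using DiFMUP as substrate; in other assays of this panel Not Active means under 50% inhibition at 10 µM.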
T2 sequence (P08575 whole entry): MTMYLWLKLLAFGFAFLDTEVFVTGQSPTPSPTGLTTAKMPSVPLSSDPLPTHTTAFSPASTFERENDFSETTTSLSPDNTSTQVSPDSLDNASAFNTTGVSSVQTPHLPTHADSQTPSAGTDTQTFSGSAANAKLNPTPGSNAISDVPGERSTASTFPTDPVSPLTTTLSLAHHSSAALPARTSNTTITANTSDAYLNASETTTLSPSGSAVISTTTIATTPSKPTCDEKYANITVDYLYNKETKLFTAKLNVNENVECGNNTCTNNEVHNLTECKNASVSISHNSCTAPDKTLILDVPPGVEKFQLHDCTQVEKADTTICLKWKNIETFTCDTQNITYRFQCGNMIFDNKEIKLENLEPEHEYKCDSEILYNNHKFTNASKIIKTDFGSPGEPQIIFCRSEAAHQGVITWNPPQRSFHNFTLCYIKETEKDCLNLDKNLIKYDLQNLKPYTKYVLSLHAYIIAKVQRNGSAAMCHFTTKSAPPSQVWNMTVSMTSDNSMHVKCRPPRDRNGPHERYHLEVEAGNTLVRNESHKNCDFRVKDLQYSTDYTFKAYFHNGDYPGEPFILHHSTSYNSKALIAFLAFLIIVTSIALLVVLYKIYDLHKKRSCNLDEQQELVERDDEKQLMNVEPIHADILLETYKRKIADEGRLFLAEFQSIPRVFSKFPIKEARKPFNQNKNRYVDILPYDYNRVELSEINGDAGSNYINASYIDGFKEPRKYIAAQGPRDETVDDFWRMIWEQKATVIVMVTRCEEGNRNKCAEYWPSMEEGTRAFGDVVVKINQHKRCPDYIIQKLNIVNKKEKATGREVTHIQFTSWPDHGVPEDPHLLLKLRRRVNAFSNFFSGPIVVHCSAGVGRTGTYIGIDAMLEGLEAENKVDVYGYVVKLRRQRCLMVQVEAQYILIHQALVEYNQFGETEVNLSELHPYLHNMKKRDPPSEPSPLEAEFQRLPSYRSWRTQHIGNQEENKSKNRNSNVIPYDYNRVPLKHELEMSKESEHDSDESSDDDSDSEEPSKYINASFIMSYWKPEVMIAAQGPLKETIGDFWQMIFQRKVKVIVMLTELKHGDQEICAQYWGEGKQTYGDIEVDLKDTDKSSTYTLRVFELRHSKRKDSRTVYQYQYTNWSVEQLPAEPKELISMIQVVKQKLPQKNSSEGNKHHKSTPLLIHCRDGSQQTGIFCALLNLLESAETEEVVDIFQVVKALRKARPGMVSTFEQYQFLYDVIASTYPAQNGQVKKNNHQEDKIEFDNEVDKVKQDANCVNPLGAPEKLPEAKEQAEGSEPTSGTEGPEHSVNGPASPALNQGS
On the set-up: species or system Escherichia coli.
Details: not given
Turning to `CC(C)c1nc(CN(C)C(=O)N[C@H](C(=O)N[C@@H](Cc2ccccc2)C[C@H](O)[C@H](Cc2ccccc2)NC(=O)OCc2cncs2)C(C)C)cs1` [RITONAVIR], the IC50 result is reported as “Not Active”.

As for `CC(C)(C)c1ccc(C(O)CCCN2CCC(C(O)(c3ccccc3)c3ccccc3)CC2)cc1` (centres undefined) [TERFENADINE], the IC50 entry was “Not Active”.

With `CC(=O)CC(c1ccccc1)c1c(O)c2ccccc2oc1=O` (centres undefined) [WARFARIN], the IC50 result is “Not Active”.

Another test has as its target T3, D(4) dopamine receptor (Homo sapiens, UniProt P21917).
T3 sequence (P21917 whole entry): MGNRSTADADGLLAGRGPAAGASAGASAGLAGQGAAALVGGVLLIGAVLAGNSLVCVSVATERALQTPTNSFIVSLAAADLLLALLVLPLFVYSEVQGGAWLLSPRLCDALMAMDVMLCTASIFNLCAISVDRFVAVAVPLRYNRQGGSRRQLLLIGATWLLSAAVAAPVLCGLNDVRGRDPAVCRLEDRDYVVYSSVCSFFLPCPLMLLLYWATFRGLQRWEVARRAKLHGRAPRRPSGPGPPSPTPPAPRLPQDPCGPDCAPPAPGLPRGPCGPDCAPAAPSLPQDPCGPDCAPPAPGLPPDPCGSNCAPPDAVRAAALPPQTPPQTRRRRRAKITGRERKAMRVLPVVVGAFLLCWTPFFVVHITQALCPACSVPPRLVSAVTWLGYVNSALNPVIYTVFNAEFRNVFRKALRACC
In words: DRUGMATRIX: Dopamine D4.2 radioligand binding (ligand: [3H] Spiperone). The format is cell membranes, Membrane. The conditions noted are these: cho-k1; Not Active = under 50% inhibition at 10 µM.
`CC(C)c1nc(CN(C)C(=O)N[C@H](C(=O)N[C@@H](Cc2ccccc2)C[C@H](O)[C@H](Cc2ccccc2)NC(=O)OCc2cncs2)C(C)C)cs1` [RITONAVIR]: the IC50 entry is recorded as “Not Active”.

Regarding `CC(C)(C)c1ccc(C(O)CCCN2CCC(C(O)(c3ccccc3)c3ccccc3)CC2)cc1` (centres undefined) [TERFENADINE], the IC50 result is on record as “Not Active”.

`CC(=O)CC(c1ccccc1)c1c(O)c2ccccc2oc1=O` (centres undefined) [WARFARIN]: the IC50 result is listed as “Not Active”.

The target of the next test is T4, C-X-C chemokine receptor type 1 (Homo sapiens, UniProt P25024). Further: in other assays of this panel Not Active means under 50% inhibition at 10 µM.
T4 sequence (P25024 whole entry): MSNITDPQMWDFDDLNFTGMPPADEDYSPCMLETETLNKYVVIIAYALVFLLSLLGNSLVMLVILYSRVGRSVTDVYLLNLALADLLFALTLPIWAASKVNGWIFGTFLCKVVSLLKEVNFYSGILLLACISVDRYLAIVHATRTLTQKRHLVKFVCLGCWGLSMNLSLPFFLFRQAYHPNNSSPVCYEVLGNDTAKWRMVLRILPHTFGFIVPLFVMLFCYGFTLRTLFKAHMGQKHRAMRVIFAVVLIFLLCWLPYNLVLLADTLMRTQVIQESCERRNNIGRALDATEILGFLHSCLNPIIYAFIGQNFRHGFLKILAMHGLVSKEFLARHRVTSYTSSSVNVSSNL
Details: not given
As for `CC(C)c1nc(CN(C)C(=O)N[C@H](C(=O)N[C@@H](Cc2ccccc2)C[C@H](O)[C@H](Cc2ccccc2)NC(=O)OCc2cncs2)C(C)C)cs1` [RITONAVIR], the IC50 entry is recorded as “Not Active”.

Turning to `CC(C)(C)c1ccc(C(O)CCCN2CCC(C(O)(c3ccccc3)c3ccccc3)CC2)cc1` (centres undefined) [TERFENADINE], the IC50 entry is given as “Not Active”.

`CC(=O)CC(c1ccccc1)c1c(O)c2ccccc2oc1=O` (centres undefined) [WARFARIN]: the IC50 entry is listed as “Not Active”.
